The record followed here is article PMC11570809, “Novel N-phenyl-2-(aniline) benzamide hydrochloride salt development for colon cancer therapy” (Frontiers in Pharmacology, 2024).

Several values for one entry are separate records, joined by “and”; a condition that tells them apart may be missing. Equal entries are not always repeated. Structures can show the parent of a compound that is named as a salt. Where two headings read alike, the source gives them in different places.

Data set [1] has as its system HT29 xenograft. Description: HT29 nude xenograft model. It is filed as in vivo, BALB/c nude mice. To be noted: 15 mg/kg once a day p.o., 13 days. The method, then:
HT29 cells in the logarithmic growth phase were digested to a cell density of 8 × 10^6/mL, and 100 μL suspension of HT29 was injected subcutaneously in the right axilla of nude mice. The dose selection is based on previously described ([Xiaoling Hu et al., 2022]). When the average tumor volume reached about 300 mm^3, they were randomly divided into 3 groups: N53·HCl (15 mg/kg once a day, p.o.), N53 (15 mg/kg once a day, p.o.), control group. 15 mg/kg N53 and N53·HCl dissolved in normal saline containing 2.5% polyoxyethylene castor oil and 2.5% DMSO were administrated by oral medications, while the Control group was given an equal volume of blank solvent. The tumor volume was measured with a vernier caliper every other days and calculated the tumor volume according to Equation 1. After 13 days of treatment, the mice were sacrificed, the tumors were removed, the tumor weight was weighed, and the tumor growth inhibition rate was calculated. The calculation formula of tumor growth inhibition rate (TGI%) was calculated using Equation 2. The corresponding equations were as follows: Tumor volume mm^3=W^2×L/2 (1) TGI%=1−T−T0 / C−C0×100% (2)
In equations, W and L represent the width and length of the tumor respectively, T and C represent the average volume of the experiment group and control group at the end of the experiment. T0 and C0 represent […].

The nature of data set [2]: Oral pharmacokinetics study. The format is in vivo, SD rats. Conditions: for T1/2 / Tmax: n = 3. The method, then: Six 250–280 g male SD rats, which are 8-week-old, were randomly divided into 2 groups (n = 3). The dose selection is based on previously described ([Xiaoling Hu et al., 2022]). 100 mg/kg N53 and N53·HCl dissolved in normal saline containing 2.5% polyoxyethylene castor oil and 2.5% DMSO was administrated by oral medications. The first group was given 100 mg/kg of N53 by intragastric administration, and the second group was given 100 mg/kg of N53·HCl by intragastric administration. For intragastric administration, blood samples were collected from the orbits of the rats in heparin sodium tubes at 0, 5, 15, 30 min, 1, 2, 4, 6, 8, 12, and 24 h after dosing; The above blood samples were centrifuged (2,500 rpm, 6 min, 4°C) to plasma, and stored at −80°C to be analyzed by LC-MS/MS. Firstly, 5 times methanol was added to each serum sample and mixed well. After centrifugation at 1,600 rpm for 10 min at 4°C, the samples were filtered through a 0.22 μm filter for analysis. The HPLC analysis was carried out on an ODS-C18 column (4.6 mm × 50 mm, 3 μm). The HPLC mobile phases consisted of water (0.1% formic acid) (A) and 95% acetonitrile (including 0.1% formic acid) (B), separated by gradient chromatography at 0.4 mL/min. Chromatographic conditions: mobile phase: 0–0.5 min, acetonitrile: H2O = 10:90; 0.5–0.6 min acetonitrile: H2O = 100:0, 0.6–2.4 min, acetonitrile: H2O = 100:0, 2.4–2.5 min acetonitrile: H2O = 10:90; wavelength: 254 nm; column temperature: 25°C. The column eluate was directly introduced into ES-API. The MS/MS instrument was conducted using the electrospray ionization (ESI) source with a positive ion detection mode. The analytes (N53·HCl) and IS (Propranolol) were all detected by multiple reactions monitoring (MRM) scan mode of transitions from precursor ions to product ions at m/z 435.2→192.1 for N53·HCl (retention time: 1.54 min), m/z 260.0→116.0 for IS (retention time: 1.54 min). The optimized instrument parameters are as follows: declustering potentials (DP) at 51 V for N53·HCl, 78 V for IS; entrance potentials (EP) at 8V; collision energies (CE) at 34 V for N53·HCl, 25 V for IS; collision cell exit potentials (CXP) at 7 V; curtain gas (CUR) at a pressure of 10 psi; turbo spray voltage at 5,500 V. Data acquisition of LC-MS/MS was performed with AnalystTM 1.5 software package (Applied Biosystems, MA, United States). The pharmacokinetic parameters for N53 and N53·HCl were calculated by using the non-compartment method (statistical moment) in DAS 2.0 software (Pharmacokinetics Institute of China).

A short description of data set [3]: Thermodynamic solubility in water (HPLC). It is filed as physicochemical. Conditions: for Solubility, equivalent molar concentration: water. The method, then: The thermodynamic solubility of N53·HCl in water was determined by high-performance liquid chromatography (Waterage, Alliance HPLC E2695, United States). The HPLC mobile phases were water (0.1% formic acid) and methanol separated by gradient chromatography at 0.5 mL/min. The chromatographic conditions were followed. Mobile phase: methanol: H2O = 10:90; 15 min; wavelength: 254 nm; temperature: 25°C. N53 and N53·HCl were dissolved in methanol to form a gradient concentration standard solution (0.32, 1.6, 8, 40, 200 and 1,000 μg/mL). The standard solutions were scanned at 254 nm and the absorption area was recorded against the concentration curve. Saturated solutions of the compounds were prepared by magnetic stirring at 37°C for 4 h in deionized water in small volumes and the solid compounds were removed using Millipore 0.45 μm filters. The saturated solution was then scanned at 254 nm. The thermodynamic solubility in water was calculated from the absorption area and curve.

For data set [4], the system named is SK-Hep-1. The data set can be described thus: MTT anti-proliferation assay, SK-Hep-1. It is filed as cell-based, human. Conditions: read-out: IC50 ± SD SK-Hep-1.
Data set [5] has as its system HuH7. Description: MTT anti-proliferation assay, HuH7. Conditions: 72 h, read-out: IC50 ± SD HuH7. It is filed as cell-based, human. On the technique in general: Tetrazolium dyes change colour on reduction, which living cells bring about.
[6] abbreviates: 100 mg/kg p.o., n = 3, mean ± SD.

On to `Cc1c(Cl)cccc1Nc1ccccc1C(=O)Nc1ccc(N2CCN(C)CC2)cc1` [Compound N53, 2-((3-chloro-2-methylphenyl)amino)-N-(4-(4-methylp-iperazin-1-yl)phenyl)benzamide], for which, in data set [1], the “Body weight versus control group” value was “no significant difference in body weight” and the “Tumor inhibition rate (TGI)” value is 34.7%. In data set [2] (100 mg/kg p.o.), the “Cmax (peak plasma concentration)” value was 333.7 µg/mL and 333 µg/mL; the T1/2 is 10.78 h and 10.8 ± 0.7 h; the time to peak (Tmax) is on record as 6.0 ± 2.0 h. In data set [2] (setting [6]), the “AUC0(-∞)” value was found to be 7200 ± 700 ng·h/mL, the CLz turned out to be 232 ± 21.7 mL/min/kg and the highest concentration (Cmax) came out at 330 ± 40 µg/mL. Besides, the Vd/F in data set [2] (male, SD, rat, plasma, po, 100 mg/kg, 100 mg/kg p.o., n = 3, mean ± SD, read-out: Vz/F) was 217 ± 33.3 L/kg. In data set [3], the “Solubility, equivalent molar concentration” value is less than 0.74 µM. For the same molecule, the IC50 in data set [4] (72 h) is 5.66 ± 0.47 µM. Also, in data set [5], the half-inhibitory concentration (IC50) came to 3.67 ± 0.38 µM.

As to `Cc1c(Cl)cccc1Nc1ccccc1C(=O)Nc1ccc(N2CCN(C)CC2)cc1` [N53·HCl, 4-(4-(2-((3-chloro-2-methylphenyl)amino)ben-zamido)phenyl)-1-methylpiperazin-1-ium], in data set [1], the “Body weight versus control group” value is reported as “no significant difference in body weight” and the “Tumor inhibition rate (TGI)” value is on record as 53.7%. Also, in data set [2] (100 mg/kg p.o.), the “Cmax (peak plasma concentration)” value came to 680.0 µg/mL, the T1/2 came out at 22.3 ± 9.9 h and the time of peak concentration (Tmax) worked out at 6.7 ± 4.6 h. For the same molecule, in data set [2] (setting [6]), the “AUC0(-∞)” value was 21200 ± 8000 ng·h/mL, the CLz was 85 ± 26.7 mL/min/kg, the Cmax stood at 680 ± 180 µg/mL and the Vz/F amounted to 149.7 ± 11.6 L/kg. The Tmax in data set [2] (male, SD, rat, plasma, po, 100 mg/kg, 100 mg/kg p.o., read-out: Tmax) was 6.67 h. In data set [2] (oral), the “AUC0–∞ increase relative to N53” value came out at 3 fold and the “Cmax increase relative to N53” value was 2 fold. The molecule further showed a solubility at 4 h in data set [3] (deionized water, thermodynamic, 37°C, 4 h) of 540 µg/mL. The same molecule had a Water solubility in data set [3] (thermodynamic, deionized water, 37°C, 4 h) of 540 µg/mL. In addition, the “Solubility, equivalent molar concentration” value in data set [3] was found to be 1150 µM. The IC50 in data set [4] (Homo sapiens, SK-HEP1, 72 h) was found to be 8.18 µM. In addition, in data set [5], the IC50 was determined as 11.7 ± 0.75 µM.

The Tmax is the time from dosing to the highest level. As usually defined, the Cmax is the maximum level reached in the sampled fluid or tissue. For orientation: IC50 means the point on the concentration scale where inhibition reaches its midpoint. Broadly, the solubility is the concentration that dissolves in the medium under given conditions. A low value points to a poorly soluble substance.
